# Assay results taken from patent US8067461B2, “3-acyl coumarins, thiochromones and quinolones and therapeutic uses thereof” (Temple University-Of The Commonwealth System of Higher …, priority 2005, dated 2011).
# Read-outs that look alike come from different tables or passages of the source.
# Legend:
# [1] = target: T1, CDK1/CyclinB (Homo sapiens, UniProt P06493); experiment: In vitro kinase assay CDK1/CyclinB, 32P incorporation into Histone H1; format: biochemical; conditions: recombinant human enzyme complex, average of two independent experiments in triplicate
# T1 construct: purchased Upstate USA, Charlottesville, Va
# [2] = system: DU145 Cells; experiment: Cytotoxicity on DU145 tumor cells, viable cells by Trypan blue exclusion; format: cell-based, human; conditions: DU145 prostate cell line, 96 h continuous treatment, five concentrations (1-100 μM range)
# Method: The effect of compounds according to Formula I on the growth of human tumor cells in culture was evaluated using the androgen receptor negative prostate cell line DU145. All cell cultures were maintained at 37° C. in a humidified atmosphere of 5% CO2.
# Cells were treated with compounds according to Formula I at five different concentrations (1-100 μM range) for each compound. The dose response of each cell line was established by determining the number of viable cells after 96 h of continuous treatment against each of the different test concentrations of each compound. The determination of viable cells was done by the by the Trypan blue exclusion method. An IC50 (μM) for each compound was determined.
# [3] = target: CDK4/CyclinD1 (Homo sapiens, UniProt P11802); experiment: In vitro kinase assay CDK4/CyclinD1, 32P incorporation into GST-Rb
# [4] = target: T2, CDK2/CylinE (Homo sapiens, UniProt P24941); experiment: In vitro kinase assay CDK2/CylinE, 32P incorporation into Histone H1; format: biochemical; conditions: recombinant human enzyme complex, average of two independent experiments in triplicate
# T2 construct: purchased Upstate USA, Charlottesville, Va
# [5] = target: T3, CDK9/CyclinT1 (Homo sapiens, UniProt P50750); experiment: In vitro kinase assay CDK9/CyclinT1, 32P incorporation into RNA Polymerase II carboxy terminal domain; format: biochemical; conditions: recombinant human enzyme complex, average of two independent experiments in triplicate
# T3 construct: purchased Upstate USA, Charlottesville, Va
# T3 sequence (P50750 whole entry, the tested form may be a part): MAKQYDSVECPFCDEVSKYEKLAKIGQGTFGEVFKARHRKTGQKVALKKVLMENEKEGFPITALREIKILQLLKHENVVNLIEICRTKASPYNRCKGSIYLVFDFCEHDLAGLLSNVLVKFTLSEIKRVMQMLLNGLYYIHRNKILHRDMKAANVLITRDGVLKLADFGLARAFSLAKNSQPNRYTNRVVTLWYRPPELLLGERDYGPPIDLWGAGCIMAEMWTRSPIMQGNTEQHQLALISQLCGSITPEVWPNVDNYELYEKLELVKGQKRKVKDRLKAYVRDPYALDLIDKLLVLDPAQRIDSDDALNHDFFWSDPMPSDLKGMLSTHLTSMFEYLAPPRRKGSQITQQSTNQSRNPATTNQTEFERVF
# T3 sequence (O60563 whole entry partner, the tested form may be a part): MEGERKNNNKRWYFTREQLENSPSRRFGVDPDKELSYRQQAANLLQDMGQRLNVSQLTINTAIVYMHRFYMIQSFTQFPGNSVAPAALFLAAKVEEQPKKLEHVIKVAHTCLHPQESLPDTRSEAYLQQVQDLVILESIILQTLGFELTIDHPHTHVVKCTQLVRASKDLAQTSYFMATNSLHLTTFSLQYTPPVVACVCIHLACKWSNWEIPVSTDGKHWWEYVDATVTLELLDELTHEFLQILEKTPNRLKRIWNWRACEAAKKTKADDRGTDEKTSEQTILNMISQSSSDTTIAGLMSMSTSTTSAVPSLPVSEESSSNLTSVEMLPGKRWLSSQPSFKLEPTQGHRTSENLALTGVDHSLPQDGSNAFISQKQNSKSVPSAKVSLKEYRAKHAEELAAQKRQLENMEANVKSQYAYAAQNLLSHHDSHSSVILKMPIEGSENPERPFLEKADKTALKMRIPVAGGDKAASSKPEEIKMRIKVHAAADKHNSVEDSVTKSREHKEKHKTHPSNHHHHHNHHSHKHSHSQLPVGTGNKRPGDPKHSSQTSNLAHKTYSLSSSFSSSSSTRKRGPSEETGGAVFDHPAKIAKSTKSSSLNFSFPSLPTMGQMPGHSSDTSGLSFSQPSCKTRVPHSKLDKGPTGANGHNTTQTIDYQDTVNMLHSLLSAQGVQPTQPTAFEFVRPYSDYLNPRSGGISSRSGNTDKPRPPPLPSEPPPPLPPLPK
# CDK4/CyclinD1, sequence (P11802 whole entry): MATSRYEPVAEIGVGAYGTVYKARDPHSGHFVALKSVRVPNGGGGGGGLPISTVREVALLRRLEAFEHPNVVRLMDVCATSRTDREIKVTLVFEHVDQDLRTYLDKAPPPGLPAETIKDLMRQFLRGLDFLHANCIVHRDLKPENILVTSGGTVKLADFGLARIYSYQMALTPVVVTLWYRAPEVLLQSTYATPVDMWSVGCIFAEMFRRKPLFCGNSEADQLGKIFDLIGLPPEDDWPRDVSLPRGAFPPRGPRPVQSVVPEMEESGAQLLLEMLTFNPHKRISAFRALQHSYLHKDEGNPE
# CDK4/CyclinD1, sequence (P24385 whole entry partner): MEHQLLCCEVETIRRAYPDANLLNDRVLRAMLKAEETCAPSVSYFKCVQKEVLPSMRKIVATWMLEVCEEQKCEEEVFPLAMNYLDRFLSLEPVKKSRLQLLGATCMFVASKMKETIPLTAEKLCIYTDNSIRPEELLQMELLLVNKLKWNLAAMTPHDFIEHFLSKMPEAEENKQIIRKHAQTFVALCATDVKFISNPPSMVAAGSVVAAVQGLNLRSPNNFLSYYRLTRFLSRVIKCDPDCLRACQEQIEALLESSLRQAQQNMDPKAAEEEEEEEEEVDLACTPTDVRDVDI
# T1 sequence (P06493 whole entry): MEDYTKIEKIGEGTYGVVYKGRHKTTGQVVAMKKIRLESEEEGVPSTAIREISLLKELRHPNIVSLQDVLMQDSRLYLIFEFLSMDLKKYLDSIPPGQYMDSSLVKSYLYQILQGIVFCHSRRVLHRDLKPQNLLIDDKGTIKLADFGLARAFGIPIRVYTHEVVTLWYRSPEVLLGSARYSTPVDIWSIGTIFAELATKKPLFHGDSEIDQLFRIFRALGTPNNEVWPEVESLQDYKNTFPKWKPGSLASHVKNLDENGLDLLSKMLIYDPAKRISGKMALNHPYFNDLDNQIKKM
# T1 sequence (P14635 whole entry partner): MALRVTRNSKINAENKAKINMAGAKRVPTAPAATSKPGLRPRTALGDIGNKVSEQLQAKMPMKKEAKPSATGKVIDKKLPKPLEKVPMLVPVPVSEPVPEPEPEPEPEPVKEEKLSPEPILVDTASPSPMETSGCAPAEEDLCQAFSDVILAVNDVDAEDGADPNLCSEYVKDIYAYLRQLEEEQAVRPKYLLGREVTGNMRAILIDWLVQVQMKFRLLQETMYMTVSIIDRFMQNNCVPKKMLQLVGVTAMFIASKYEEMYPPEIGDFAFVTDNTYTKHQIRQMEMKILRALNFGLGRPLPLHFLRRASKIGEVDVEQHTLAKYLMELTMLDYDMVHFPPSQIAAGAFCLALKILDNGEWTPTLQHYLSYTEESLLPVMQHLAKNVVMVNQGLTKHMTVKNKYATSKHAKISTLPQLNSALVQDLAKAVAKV
SMILES,IC50 [1],"IC50 ([2]; Homo sapiens, DU-145)",IC50 [3],IC50 [4],IC50 [5],IC50 [2],"IC50 ([3]; read-out: CDK4 IC50, recombinant human enzyme complex, average of two independent experiments in triplicate)"
"O=C(c1cc2cc([N+](=O)[O-])ccc2oc1=O)c1cc2cc([N+](=O)[O-])ccc2oc1=O [Example 9, 6-nitro-3-[(6-nitro-2-oxochromen-3-yl)carbonyl]chromen-2-one]",> 10 µM,1 to 10 µM,> 10 µM,1.54 µM,0.5 µM,,
"O=C(c1cc2cc(F)ccc2oc1=O)c1cc2cc(F)ccc2oc1=O [Example 7, 6-fluoro-3-[(6-fluoro-2-oxochromen-3-yl)carbonyl]chromen-2-one]",> 10 µM,> 100 µM,> 10 µM,,,,
"O=C(c1cc2cc(I)ccc2oc1=O)c1cc2cc(I)ccc2oc1=O [Example 8, 6-iodo-3-[(6-iodo-2-oxochromen-3-yl)carbonyl]chromen-2-one]",> 10 µM,> 100 µM,> 10 µM,,,,
"O=C(c1cc2cccc(F)c2oc1=O)c1cc2cccc(F)c2oc1=O [Example 26, 8-fluoro-3-[(8-fluoro-2-oxochromen-3-yl)carbonyl]chromen-2-one]",> 10 µM,,> 10 µM,,,,
"O=C(c1cc2cccc(O)c2oc1=O)c1cc2cccc(O)c2oc1=O [Example 17, 8-hydroxy-3-[(8-hydroxy-2-oxochromen-3-yl)carbonyl]chromen-2-one]",> 10 µM,25 to 50 µM,> 10 µM,,,,
"O=C(c1cc2cc(Cl)cc(Br)c2oc1=O)c1cc2cc(Cl)cc(Br)c2oc1=O [Example 19, 6-chloro-8-bromo-3-[(6-chloro-8-bromo-2-oxochromen-3-yl)carbonyl]-chromen-2-one]",1 to 10 µM,1 to 10 µM,> 10 µM,0.089 µM,0.5 µM,,
"O=C(c1cc2cc(OC(F)(F)F)ccc2oc1=O)c1cc2cc(OC(F)(F)F)ccc2oc1=O [Example 23, 6-trifluoromethoxy-3-[(6-tri-fluoromethoxy-2-oxochromen-3-yl)-carbonyl]chromen-2-one]",> 10 µM,,> 10 µM,,,,
"O=C(c1cc2cc(Br)ccc2oc1=O)c1cc2cc(Br)ccc2oc1=O [Example 1, 6-bromo-3-[(6-bromo-2-oxo-chromen-3-yl)carbonyl]chromen-2-one]",> 10 µM,> 100 µM,> 10 µM,,,,
"O=C(c1cc2cccc([N+](=O)[O-])c2oc1=O)c1cc2cccc([N+](=O)[O-])c2oc1=O [Example 24, 8-nitro-3-[(8-nitro-2-oxo-chromen-3-yl)carbonyl]chromen-2-one]",> 10 µM,,> 10 µM,,,,
"Cc1ccc2oc(=O)c(C(=O)c3cc4cc(C)ccc4oc3=O)cc2c1 [Example 22, 6-methyl-3-[(6-methyl-2-oxochromen-3-yl)carbonyl]chromen-2-one]",1 to 10 µM,,> 10 µM,,,,
"COc1ccc2cc(C(=O)c3cc4ccc(OC)cc4oc3=O)c(=O)oc2c1 [Example 2, 7-methoxy-3-[(7-methoxy-2-oxochromen-3-yl)carbonyl]chromen-2-one]",> 10 µM,> 100 µM,> 10 µM,,,,
"O=C(c1cc2ccc(O)cc2oc1=O)c1cc2ccc(O)cc2oc1=O [Example 11, 7-hydroxy-3-[(7-hydroxy-2-oxo-chromen-3-yl)carbonyl]chromen-2-one]",> 10 µM,> 100 µM,> 10 µM,,,,
"COc1cccc2oc(=O)c(C(=O)c3cc4c(OC)cccc4oc3=O)cc12 [Example 21, 5-methoxy-3-[(5-methoxy-2-oxochromen-3-yl)carbonyl]chromen-2-one]",> 10 µM,50 to 100 µM,> 10 µM,10 µM,0.5 µM,,
"O=C(c1cc2cc(Cl)cc(Cl)c2oc1=O)c1cc2cc(Cl)cc(Cl)c2oc1=O [Example 12, 6,8-dichloro-3-[(6,8-dichloro-2-oxochromen-3-yl)carbonyl]chromen-2-one]",> 10 µM,10 to 25 µM,2.5 to 5 µM,,,,
"COc1cc(OC)c2cc(C(=O)c3cc4c(OC)cc(OC)cc4oc3=O)c(=O)oc2c1 [Example 3, 5,7-dimethoxy-3-[(5,7-dimethoxy-2-oxochromen-3-yl)carbonyl]chromen-2-one]",> 10 µM,> 100 µM,> 10 µM,,,,
"O=C(c1cc2cc(I)cc(I)c2oc1=O)c1cc2cc(I)cc(I)c2oc1=O [Example 29, 6,8-diiodo-3-[(6,8-diiodo-2-oxochromen-3-yl)carbonyl]chromen-2-one]",,10 to 20 µM,0.04 µM,,,,
"COc1cc([N+](=O)[O-])cc2cc(C(=O)c3cc4cc([N+](=O)[O-])cc(OC)c4oc3=O)c(=O)oc12 [Example 10, 8-methoxy-3-[(8-methoxy-6-nitro-2-oxo-chromen-3-yl)carbonyl]-6-nitro-chromen-2-one]",> 10 µM,10 to 25 µM,> 10 µM,0.549 µM,0.5 µM,,
"O=C(c1cc2cc(Cl)ccc2oc1=O)c1cc2cc(Cl)ccc2oc1=O [Example 6, 6-chloro-3-[(6-chloro-2-oxochromen-3-yl)carbonyl]chromen-2-one]",1 to 10 µM,> 100 µM,> 10 µM,,,,
O=C(c1cc2ccccc2oc1=O)c1cc2ccccc2oc1=O [Example 5],> 10 µM,> 100 µM,> 10 µM,,,,
"COc1cc(Br)cc2cc(C(=O)c3cc4cc(Br)cc(OC)c4oc3=O)c(=O)oc12 [Example 16, 6-bromo-8-methoxy-3-[(6-bromo-8-methoxy-2-oxochromen-3-yl)-carbonyl]chromen-2-one]",> 10 µM,50 to 100 µM,> 10 µM,,,,
"O=C(c1cc2cc(O)ccc2oc1=O)c1cc2cc(O)ccc2oc1=O [Example 18, 6-hydroxy-3-[(6-hydroxy-2-oxochromen-3-yl)carbonyl]chromen-2-one]",> 10 µM,> 100 µM,> 10 µM,,,,
"O=C(c1cc2cc3ccccc3cc2oc1=O)c1cc2cc3ccccc3cc2oc1=O [Example 20, [(2-oxobenzo[g]chromen-3-yl)-carbonyl]benzo[g]chromen-2-one]",> 10 µM,,,,,25 to 50 µM,> 10 µM
"O=C(c1cc2cc([N+](=O)[O-])cc(Br)c2oc1=O)c1cc2cc([N+](=O)[O-])cc(Br)c2oc1=O [Example 27, 6-nitro-8-bromo-3-[(6-nitro-8-bromo-2-oxocbromen-3-yl)carbonyl]-chromen-2-one]",,,> 10 µM,,,,
"O=C(c1cc2cc(F)cc(F)c2oc1=O)c1cc2cc(F)cc(F)c2oc1=O [Example 14, 6,8-difluoro-3-[(6,8-difluoro-2-oxochromen-3-yl)carbonyl]chromen-2-one]",> 10 µM,10 to 25 µM,> 10 µM,,,,
"CCOc1cccc2cc(C(=O)c3cc4cccc(OCC)c4oc3=O)c(=O)oc12 [Example 4, 8-ethoxy-3-[(8-ethoxy-2-oxochromen-3-yl)carbonyl]chromen-2-one]",> 10 µM,> 100 µM,> 10 µM,,,,
"COc1ccc(Br)c2cc(C(=O)c3cc4c(Br)ccc(OC)c4oc3=O)c(=O)oc12 [Example 15, 5-bromo-8-methoxy-3-[(5-bromo-8-methoxy-2-oxochromen-3-yl)-carbonyl]chromen-2-one]",> 10 µM,25 to 50 µM,> 10 µM,,,,
"O=C(c1cc2cc(Br)cc(Br)c2oc1=O)c1cc2cc(Br)cc(Br)c2oc1=O [Example 13, 6,8-dibromo-3-[(6,8-dibromo-2-oxochromen-3-yl)carbonyl]chromen-2-one]",,10 to 25 µM,2.5 to 5 µM,10 µM,0.5 µM,,
